From patent US10550124B2, “Atropisomerism for increased kinase inhibitor selectivity” (SAN DIEGO STATE UNIVERSITY RESEARCH FOUNDATION, priority 2015, dated 2020)
Each block holds one molecule with its values, some of them ahead of it.

Assays:
[1] = Experimental measurement of the barriers to rotation (chiral HPLC); assay type: physicochemical; conditions: for Barrier to Rotation: calculated from kobs, Gibbs free energy equation; for Barrier to Rotation kobs: observed rate constant of racemization, in ethanol, heated at constant temperature, in s^-1 (unit assumed)
Procedure: Enantiomerically enriched atropisomeric pyrrolopyrimidine analogues were isolated via chiral HPLC (Daicel Chiralpak IA PN:80335, 3 mL/min, 80:20 or 50:50 hexanes:[…], 25° C.) and evaporated in vacuo. The enantiomerically enriched analogues were then dissolved in ethanol and placed in a sealed 2-dram vial and heated under constant temperature on an aluminum block. At each time point, an aliquot of the mixture was removed and quenched in an HPLC vial containing ice cold 80:20 hexanes:ethanol. Each sample was then injected into the chiral HPLC system (Daicel Chiralpak IA PN:80325, 1 mL/min, 80:20 or 50:50 hexanes:ethanol, 25° C.) and enantiomeric excess (ee) measured. The timepoint and enantiomeric excess (ee) data was then plotted in order to determine an observed rate constant, kobs, at the corresponding temperature. The barrier to rotation was then calculated using the relationship of kracemization=2*kenantiomerization and then substituted into the Gibbs Free Energy Equation:
[formula] where h=Planck Constant, kb=Boltzmann Constant, T=Temp. (K), R=Gas Constant.

Src kinase = Src kinase (Homo sapiens, UniProt P12931); experiment: Z′-LYTE kinase inhibition assay, Src; assay type: biochemical; conditions: for IC50: Src, error is standard deviation
Chain of Src kinase (P12931 whole entry): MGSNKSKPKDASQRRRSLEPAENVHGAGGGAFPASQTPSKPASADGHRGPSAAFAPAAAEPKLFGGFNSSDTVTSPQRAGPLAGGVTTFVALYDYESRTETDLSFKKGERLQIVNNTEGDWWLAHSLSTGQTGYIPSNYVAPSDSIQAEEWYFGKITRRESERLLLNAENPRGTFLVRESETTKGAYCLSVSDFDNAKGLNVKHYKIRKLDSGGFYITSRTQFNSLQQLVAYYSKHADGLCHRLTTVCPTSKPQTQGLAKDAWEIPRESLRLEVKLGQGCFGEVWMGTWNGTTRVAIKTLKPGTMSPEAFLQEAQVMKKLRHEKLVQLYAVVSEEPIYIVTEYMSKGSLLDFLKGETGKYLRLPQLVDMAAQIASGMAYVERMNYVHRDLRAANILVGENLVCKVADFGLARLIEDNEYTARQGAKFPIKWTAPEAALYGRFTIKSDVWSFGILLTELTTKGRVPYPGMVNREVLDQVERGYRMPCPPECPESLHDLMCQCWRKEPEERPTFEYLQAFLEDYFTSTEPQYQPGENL
Description: Based on the observed stereochemical stabilities, we chose 1f, 2e, and 2f for further study and obtained inhibition data against Src kinase from Life Technologies' Z′-LYTE™ kinase assay (Scheme 3).
(§1) All samples were sent out to Life Technologies to obtain kinase inhibition data. A brief description of the assays and analyses are included below.
(§2) Assay Theory (SelectScreen® Kinase Profiling Services (Life Technologies, Madison, Wis. USA). The Z′-LYTE® biochemical assay employs a fluorescence-based, coupled-enzyme format and is based on the differential sensitivity of phosphorylated and non-phosphorylated peptides to proteolytic cleavage. The peptide substrate is labeled with two fluorophores one at each end—that make up a FRET pair.
(§3) In the primary reaction, the kinase transfers the gamma-phosphate of ATP to a single tyrosine, serine or threonine residue in a synthetic FRET-peptide. In the secondary reaction, a site-specific protease recognizes and cleaves non-phosphorylated FRET-peptides.
(§4) Phosphorylation of FRET-peptides suppresses cleavage by the Development Reagent. Cleavage disrupts FRET between the donor (i.e., coumarin) and acceptor (i.e., fluorescein) fluorophores on the FRET-peptide, whereas uncleaved, phosphorylated FRET-peptides maintain FRET. A ratiometric method, which calculates the ratio (the Emission Ratio) of donor emission to acceptor emission after excitation of the donor fluorophore at 400 nm, is used to quantitate reaction progress, as shown in the equation below: […]
(§5) A significant benefit of this ratiometric method for quantitating reaction progress is the elimination of well-to-well variations in FRET-peptide concentration and signal intensities. As a result, the assay yields very high Z′-factor values (>0.7) at a low percent phosphorylation. Both cleaved and uncleaved FRET-peptides contribute to the fluorescence signals and therefore to the Emission Ratio. The extent of phosphorylation of the FRET-peptide can be calculated from the Emission Ratio. The Emission Ratio will remain low if the FRET-peptide is phosphorylated (i.e., no kinase inhibition) and will he high if the FRET-peptide is non-phosphorylated (i.e., kinase inhibition).

BTK = BTK (Homo sapiens, UniProt Q06187); experiment: Z′-LYTE kinase inhibition assay, BTK; assay type: biochemical; conditions: average of 2 runs
Description: as §1, §2, §3, §4, §5

Fyn = Fyn (Homo sapiens, UniProt P06241); experiment: Z′-LYTE kinase inhibition assay, Fyn; assay type: biochemical; conditions: average of 2 runs
Description: as §1, §2, §3, §4, §5

Kit = Kit (Homo sapiens, UniProt P10721); experiment: Z′-LYTE kinase inhibition assay, Kit; assay type: biochemical; conditions: average of 2 runs
Description: as §1, §2, §3, §4, §5

pdgfr-a = pdgfr-a (Homo sapiens, UniProt P16234); experiment: Z′-LYTE kinase inhibition assay, pdgfr-a; assay type: biochemical; conditions: average of 2 runs
Description: as §1, §2, §3, §4, §5

Blk = Blk (Homo sapiens, UniProt P51451); experiment: Z′-LYTE kinase inhibition assay, Blk; assay type: biochemical; conditions: average of 2 runs
Chain of Blk (P51451 whole entry): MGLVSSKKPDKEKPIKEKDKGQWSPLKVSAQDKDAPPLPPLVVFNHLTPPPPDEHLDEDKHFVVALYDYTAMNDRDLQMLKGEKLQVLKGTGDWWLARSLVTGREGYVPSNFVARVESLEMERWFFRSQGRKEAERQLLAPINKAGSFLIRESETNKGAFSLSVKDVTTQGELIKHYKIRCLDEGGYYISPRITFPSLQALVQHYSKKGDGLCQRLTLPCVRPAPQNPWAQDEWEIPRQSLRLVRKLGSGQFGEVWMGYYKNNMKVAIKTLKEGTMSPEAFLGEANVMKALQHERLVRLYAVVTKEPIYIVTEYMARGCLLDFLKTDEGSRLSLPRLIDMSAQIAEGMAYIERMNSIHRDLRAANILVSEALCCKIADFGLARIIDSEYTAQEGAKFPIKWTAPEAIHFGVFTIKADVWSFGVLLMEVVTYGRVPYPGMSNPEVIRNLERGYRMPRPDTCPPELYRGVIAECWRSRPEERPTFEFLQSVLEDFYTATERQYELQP
Description: as §1, §2, §3, §4, §5

Her-2 = Her-2 (Homo sapiens, UniProt P04626); experiment: Z′-LYTE kinase inhibition assay, Her-2; assay type: biochemical; conditions: average of 2 runs
Description: as §1, §2, §3, §4, §5

Lyn = Lyn (Homo sapiens, UniProt P07948); experiment: Z′-LYTE kinase inhibition assay, Lyn; assay type: biochemical; conditions: average of 2 runs
Description: as §1, §2, §3, §4, §5

Abl = Abl (Homo sapiens, UniProt P00519); experiment: Z′-LYTE kinase inhibition assay, Abl; assay type: biochemical; conditions: for % inhibition: average of 2 runs
Chain of Abl (P00519 whole entry): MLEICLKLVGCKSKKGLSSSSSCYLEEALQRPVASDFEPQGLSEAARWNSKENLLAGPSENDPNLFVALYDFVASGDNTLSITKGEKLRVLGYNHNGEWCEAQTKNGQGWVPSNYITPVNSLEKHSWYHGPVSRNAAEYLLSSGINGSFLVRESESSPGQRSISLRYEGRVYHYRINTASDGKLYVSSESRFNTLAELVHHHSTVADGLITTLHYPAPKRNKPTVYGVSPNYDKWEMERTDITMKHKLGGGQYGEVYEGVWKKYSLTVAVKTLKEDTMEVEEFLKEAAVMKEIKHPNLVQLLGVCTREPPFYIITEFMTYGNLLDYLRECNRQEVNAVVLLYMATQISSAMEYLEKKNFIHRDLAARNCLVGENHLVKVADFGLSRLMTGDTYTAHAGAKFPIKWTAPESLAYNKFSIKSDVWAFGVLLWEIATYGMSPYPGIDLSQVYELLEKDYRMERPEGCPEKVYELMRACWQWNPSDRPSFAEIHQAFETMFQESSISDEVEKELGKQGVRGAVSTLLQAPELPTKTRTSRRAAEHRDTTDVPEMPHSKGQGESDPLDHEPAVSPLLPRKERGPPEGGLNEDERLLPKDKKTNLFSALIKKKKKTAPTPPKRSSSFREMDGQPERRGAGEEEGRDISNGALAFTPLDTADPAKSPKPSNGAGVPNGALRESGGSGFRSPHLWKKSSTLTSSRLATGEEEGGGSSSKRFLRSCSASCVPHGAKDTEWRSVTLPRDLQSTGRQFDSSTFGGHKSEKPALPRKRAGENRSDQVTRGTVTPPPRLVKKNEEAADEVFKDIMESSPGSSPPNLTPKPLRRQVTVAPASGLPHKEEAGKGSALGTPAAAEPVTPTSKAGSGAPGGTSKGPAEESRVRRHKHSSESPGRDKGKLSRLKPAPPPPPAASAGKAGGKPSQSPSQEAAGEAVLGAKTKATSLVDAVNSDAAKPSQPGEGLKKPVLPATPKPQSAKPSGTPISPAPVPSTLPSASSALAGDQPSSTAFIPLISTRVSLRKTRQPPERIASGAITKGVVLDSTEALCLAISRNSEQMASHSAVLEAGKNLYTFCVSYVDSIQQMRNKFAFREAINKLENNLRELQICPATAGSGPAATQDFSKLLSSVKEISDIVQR
Description: as §1, §2, §3, §4, §5

Yes = Yes (Homo sapiens, UniProt P07947); experiment: Z′-LYTE kinase inhibition assay, Yes; assay type: biochemical
Chain of Yes (P07947 whole entry): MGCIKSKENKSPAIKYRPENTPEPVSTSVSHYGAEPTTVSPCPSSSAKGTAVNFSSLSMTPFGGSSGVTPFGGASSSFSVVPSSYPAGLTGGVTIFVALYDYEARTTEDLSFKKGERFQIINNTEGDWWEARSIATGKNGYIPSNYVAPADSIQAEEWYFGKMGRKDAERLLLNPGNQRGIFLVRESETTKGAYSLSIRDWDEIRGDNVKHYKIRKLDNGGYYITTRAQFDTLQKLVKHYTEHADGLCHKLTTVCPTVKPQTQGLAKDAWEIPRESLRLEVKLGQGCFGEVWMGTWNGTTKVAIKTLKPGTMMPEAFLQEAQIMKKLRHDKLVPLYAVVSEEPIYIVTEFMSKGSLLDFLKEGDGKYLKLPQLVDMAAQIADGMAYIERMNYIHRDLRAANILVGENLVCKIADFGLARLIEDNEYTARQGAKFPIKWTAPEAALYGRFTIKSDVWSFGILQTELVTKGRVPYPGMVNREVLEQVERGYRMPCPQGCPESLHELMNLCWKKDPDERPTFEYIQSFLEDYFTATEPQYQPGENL
Description: as §1, §2, §3, §4, §5

Hck = Hck (Homo sapiens, UniProt P08631); experiment: Z′-LYTE kinase inhibition assay, Hck; assay type: biochemical; conditions: average of 2 runs
Description: as §1, §2, §3, §4, §5

Fgr = Fgr (Homo sapiens, UniProt P09769); experiment: Z′-LYTE kinase inhibition assay, Fgr; assay type: biochemical; conditions: average of 2 runs
Description: as §1, §2, §3, §4, §5

Ret = Ret (Homo sapiens, UniProt P07949); experiment: Z′-LYTE kinase inhibition assay, Ret; assay type: biochemical; conditions: for % inhibition: average of 2 runs
Chain of Ret (P07949 29-1114): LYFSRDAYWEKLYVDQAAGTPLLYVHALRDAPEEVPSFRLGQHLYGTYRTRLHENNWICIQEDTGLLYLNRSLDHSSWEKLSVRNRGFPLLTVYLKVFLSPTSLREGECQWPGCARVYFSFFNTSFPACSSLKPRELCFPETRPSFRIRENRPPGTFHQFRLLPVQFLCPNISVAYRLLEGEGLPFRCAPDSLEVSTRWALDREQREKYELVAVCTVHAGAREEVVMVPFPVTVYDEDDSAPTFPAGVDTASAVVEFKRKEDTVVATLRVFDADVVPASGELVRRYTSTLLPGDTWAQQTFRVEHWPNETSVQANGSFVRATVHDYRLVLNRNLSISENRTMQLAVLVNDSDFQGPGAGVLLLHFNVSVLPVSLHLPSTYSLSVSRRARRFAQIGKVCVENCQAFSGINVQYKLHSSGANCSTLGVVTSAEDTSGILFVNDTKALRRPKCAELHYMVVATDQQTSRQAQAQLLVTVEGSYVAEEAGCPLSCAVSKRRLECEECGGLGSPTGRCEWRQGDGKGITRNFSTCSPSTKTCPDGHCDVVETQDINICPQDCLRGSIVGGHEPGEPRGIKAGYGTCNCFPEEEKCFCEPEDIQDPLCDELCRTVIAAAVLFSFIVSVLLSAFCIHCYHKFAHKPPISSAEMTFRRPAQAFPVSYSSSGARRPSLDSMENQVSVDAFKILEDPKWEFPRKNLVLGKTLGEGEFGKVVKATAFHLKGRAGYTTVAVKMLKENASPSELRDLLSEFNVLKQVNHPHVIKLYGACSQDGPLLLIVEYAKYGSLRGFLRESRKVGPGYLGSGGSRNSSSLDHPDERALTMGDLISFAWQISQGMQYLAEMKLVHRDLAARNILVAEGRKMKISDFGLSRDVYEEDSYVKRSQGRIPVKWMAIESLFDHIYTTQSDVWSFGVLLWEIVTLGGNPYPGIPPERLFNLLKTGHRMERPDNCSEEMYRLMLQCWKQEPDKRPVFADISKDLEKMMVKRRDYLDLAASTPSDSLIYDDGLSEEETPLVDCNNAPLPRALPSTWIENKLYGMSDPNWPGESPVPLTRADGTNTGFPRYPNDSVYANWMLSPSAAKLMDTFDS
Description: as §1, §2, §3, §4, §5

pdgfr-b = pdgfr-b (Homo sapiens, UniProt P09619); experiment: Z′-LYTE kinase inhibition assay, pdgfr-b; assay type: biochemical; conditions: average of 2 runs
Description: as §1, §2, §3, §4, §5

EGFR = EGFR (Homo sapiens, UniProt P00533); experiment: Z′-LYTE kinase inhibition assay, EGFR; assay type: biochemical; conditions: for % inhibition: average of 2 runs
Chain of EGFR (P00533 25-1210): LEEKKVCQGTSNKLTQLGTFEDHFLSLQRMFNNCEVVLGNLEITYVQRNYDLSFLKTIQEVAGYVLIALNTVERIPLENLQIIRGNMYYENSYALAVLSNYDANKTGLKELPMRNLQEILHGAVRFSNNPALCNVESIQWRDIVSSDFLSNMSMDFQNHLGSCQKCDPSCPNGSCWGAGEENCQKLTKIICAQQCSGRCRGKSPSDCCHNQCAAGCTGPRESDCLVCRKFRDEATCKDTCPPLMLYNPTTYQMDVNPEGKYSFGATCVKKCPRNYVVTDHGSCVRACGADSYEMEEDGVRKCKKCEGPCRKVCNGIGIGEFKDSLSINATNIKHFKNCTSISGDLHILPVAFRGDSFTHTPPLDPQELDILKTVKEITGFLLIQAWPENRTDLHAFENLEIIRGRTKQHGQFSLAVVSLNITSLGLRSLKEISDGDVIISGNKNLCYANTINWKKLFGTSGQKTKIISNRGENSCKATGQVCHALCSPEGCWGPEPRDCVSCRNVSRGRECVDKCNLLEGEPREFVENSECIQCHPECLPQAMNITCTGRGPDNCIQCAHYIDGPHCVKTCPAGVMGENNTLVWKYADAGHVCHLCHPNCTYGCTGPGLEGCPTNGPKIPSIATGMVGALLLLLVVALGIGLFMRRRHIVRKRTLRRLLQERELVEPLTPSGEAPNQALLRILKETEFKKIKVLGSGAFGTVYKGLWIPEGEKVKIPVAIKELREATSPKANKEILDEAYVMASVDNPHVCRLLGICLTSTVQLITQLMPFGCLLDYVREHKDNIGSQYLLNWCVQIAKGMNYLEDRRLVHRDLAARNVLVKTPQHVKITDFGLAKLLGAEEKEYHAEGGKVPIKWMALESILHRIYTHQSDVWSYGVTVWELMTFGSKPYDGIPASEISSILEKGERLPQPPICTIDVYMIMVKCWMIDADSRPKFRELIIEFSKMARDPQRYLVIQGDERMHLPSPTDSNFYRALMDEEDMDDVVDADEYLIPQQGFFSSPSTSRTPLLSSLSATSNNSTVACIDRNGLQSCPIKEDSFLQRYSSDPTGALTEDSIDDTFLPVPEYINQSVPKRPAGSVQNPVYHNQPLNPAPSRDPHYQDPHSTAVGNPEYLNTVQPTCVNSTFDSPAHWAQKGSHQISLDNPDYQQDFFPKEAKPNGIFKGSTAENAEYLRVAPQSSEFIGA
Description: as §1, §2, §3, §4, §5

Lck = Lck (Homo sapiens, UniProt P06239); experiment: Z′-LYTE kinase inhibition assay, Lck; assay type: biochemical; conditions: average of 2 runs
Description: as §1, §2, §3, §4, §5

Alk = Alk (Homo sapiens, UniProt Q9UM73); experiment: Z′-LYTE kinase inhibition assay, Alk; assay type: biochemical; conditions: average of 2 runs
Description: as §1, §2, §3, §4, §5

[2] = test system: panel of 18 tyrosine kinases; experiment: Kinase inhibitor profiling across a panel of tyrosine kinases (selectivity); assay type: biochemical; conditions: for S(40%): number of kinases inhibited greater than 40% divided by number of kinases tested (including Src)
Procedure: In order to probe the effect of atropisomeric conformation on kinase selectivity we subjected 1f, 2e, and 2f to kinase inhibitor profiling across a panel of tyrosine kinases at 1000 nM and 5000 nM (data for 2e shown in Scheme 4 below).
To analyze each analog's selectivity across the panel we turned to selectivity scores (Davis et al., Nat. Biotechnol. 2011, 29, 1046-51), simply the number of kinases inhibited above a certain threshold divided by the number of kinases evaluated. […] For example at 1000 nM 2e-(R) yielded an S(40%) of 0.11 while 2e-(S) gave an S(40%) of 0.16. […] Differences in selectivity between 2e-(R) and 2e-(S) at 5000 nM (4.5 times the IC50 of 2e-(S) toward Src) and for 5 at 1000 nM (6.25 times the IC50 of 5 toward Src) can be viewed graphically across tyrosine kinases (FIG. 3). Importantly, similar trends were also observed across each of the atropisomeric series tested.
as §1, §2, §3, §4, §5

CSK = CSK (Homo sapiens, UniProt P41240); experiment: Z′-LYTE kinase inhibition assay, CSK; assay type: biochemical; conditions: average of 2 runs
Description: as §1, §2, §3, §4, §5

Barrier to Rotation [1]: 28.6 kcal/mol
SMILES: COc1ccc(Cl)c(-c2c(Cl)n(C(C)(C)C)c3ncnc(N)c23)c1 (racemic) [Compound 2e, 7-(tert-butyl)-6-chloro-5-(2-chloro-5-methoxyphenyl)-7H-pyrrolo[2,3d]pyrimidin-4-amine]
Barrier to Rotation kobs [1]: 3.27E−05

Barrier to Rotation [1]: 30.4 kcal/mol
SMILES: COc1ccc(Br)c(-c2c(Cl)n(C(C)(C)C)c3ncnc(N)c23)c1 (racemic) [Compound 2f, 5-(2-bromo-5-methoxyphenyl)-7-(tert-butyl)-6-chloro-7H-pyrrolo[2,3-d]pyrimidin-4-amine]
Barrier to Rotation kobs [1]: 2.68E−05

The remaining lines, values behind:

SMILES: COc1ccc(Br)c(-c2c(Cl)n(C3CCCC3)c3ncnc(N)c23)c1 (racemic) [Compound 1f, 5-(2-bromo-5-methoxyphenyl)-6-chloro-7-cyclopentyl-7H-pyrrolo[2,3-d]pyrimidin-4-amine]
Barrier to Rotation [1]: 29.0 kcal/mol
Barrier to Rotation kobs [1]: 1.01E−05

SMILES: COc1ccc(Br)c(-c2c(Cl)n(C3CCCC3)c3ncnc(N)c23)c1 (single isomer, unassigned) [1f-(R), 5-(2-bromo-5-methoxyphenyl)-6-chloro-7-cyclopentyl-7H-pyrrolo[2,3-d]pyrimidin-4-amine]
IC50 (Src kinase): > 10 µM

SMILES: COc1ccc(Br)c(-c2c(Cl)n(C3CCCC3)c3ncnc(N)c23)c1 (single isomer, unassigned) [1f-(S), 5-(2-bromo-5-methoxyphenyl)-6-chloro-7-cyclopentyl-7H-pyrrolo[2,3-d]pyrimidin-4-amine]
IC50 (Src kinase): 1.3 µM

SMILES: COc1ccc(Cl)c(-c2c(Cl)n(C(C)(C)C)c3ncnc(N)c23)c1 (single isomer, unassigned) [2e-(R), 7-(tert-butyl)-6-chloro-5-(2-chloro-5-methoxyphenyl)-7H-pyrrolo[2,3d]pyrimidin-4-amine]
inhibition at 1 µM (BTK; 1000 nM): 10%
% inhibition (BTK; 5000 nM, 5 µM): 29%
inhibition at 1 µM (Fyn; 1000 nM): 19%
inhibition at 5 µM (Fyn; 5000 nM): 44%
% inhibition (Kit; 1000 nM, 1 µM): 5%
inhibition at 5 µM (Kit; 5000 nM): 26%
inhibition at 1 µM (pdgfr-a; 1000 nM): 3%
inhibition at 5 µM (pdgfr-a; 5000 nM): 8%
% inhibition (Blk; 1000 nM, 1 µM): 3%
inhibition at 5 µM (Blk; 5000 nM): 32%
% inhibition (Her-2; 1000 nM, 1 µM): −2%
inhibition at 5 µM (Her-2; 5000 nM): 0%
inhibition at 1 µM (Lyn; 1000 nM): 19%
inhibition at 5 µM (Lyn; 5000 nM): 57%
IC50 of Kinase/IC50 of Yes (Abl; Abl relative to Yes): 10.0
% inhibition (Abl; Abl, 1000 nM, 1 µM): 11%
% inhibition (Abl; Abl, 5000 nM): 26%
% inhibition (Abl; Abl, 5000 nM, 5 µM): 26%
IC50 (Abl; Abl, error is standard deviation): > 10 µM
IC50 of Kinase/IC50 of Yes (Yes; Yes relative to Yes): 1
inhibition at 1 µM (Yes; Yes, 1000 nM, average of 2 runs): 53%
inhibition at 5 µM (Yes; Yes, 5000 nM, average of 2 runs): 79%
IC50 (Yes; Yes, error is standard deviation): 0.895 µM
inhibition at 1 µM (Hck; 1000 nM): 24%
inhibition at 5 µM (Hck; 5000 nM): 40%
inhibition at 1 µM (Fgr; 1000 nM): 45%
inhibition at 5 µM (Fgr; 5000 nM): 77%
IC50 of Kinase/IC50 of Yes (Ret; Ret relative to Yes): 2.07
% inhibition (Ret; Ret, 1000 nM, 1 µM): 35%
% inhibition (Ret; Ret, 5000 nM): 73%
% inhibition (Ret; Ret, 5000 nM, 5 µM): 73%
IC50 (Ret; Ret, error is standard deviation): 1.86 µM
% inhibition (pdgfr-b; 1000 nM, 1 µM): 4%
inhibition at 5 µM (pdgfr-b; 5000 nM): 13%
IC50 of Kinase/IC50 of Yes (Src kinase; Src relative to Yes): 6.22
IC50 (Src kinase): 5.57 µM
IC50 of Kinase/IC50 of Yes (EGFR; EGFR relative to Yes): >10.0
% inhibition (EGFR; EGFR, 1000 nM, 1 µM): −4%
% inhibition (EGFR; EGFR, 5000 nM, 5 µM): 0%
IC50 (EGFR; EGFR, error is standard deviation): > 10 µM
inhibition at 1 µM (Lck; 1000 nM): 23%
inhibition at 5 µM (Lck; 5000 nM): 51%
inhibition at 1 µM (Alk; 1000 nM): 6%
% inhibition (Alk; 5000 nM, 5 µM): 18%
S(40%) ([2]; 1000 nM): 0.11
S(40%) ([2]; 5000 nM): 0.44
augmentation of 5's inherent selectivity ([2]; Ret over Abl and Src): 4 fold
inhibition at 1 µM (CSK; 1000 nM): 21%
inhibition at 5 µM (CSK; 5000 nM): 35%

SMILES: COc1ccc(Cl)c(-c2c(Cl)n(C3CCCC3)c3ncnc(N)c23)c1 [Compound 1e, 6-chloro-5-(2-chloro-5-methoxyphenyl)-7-cyclopentyl-7H-pyrrolo[2,3-d]pyrimidin-4-amine]
Barrier to Rotation [1]: 27.2 kcal/mol
Barrier to Rotation kobs [1]: 1.24E−04
